What was measured:
MV4-11 = test: Antiproliferative activity against human MV4-11 cells assessed as inhibition of cell proliferation incubated for 72 hrs by CCK-8 assay; format: functional, cell-based; conditions: MV4-11, 72 h
[1] = Metabolic stability in human liver microsome assessed as parent compound remaining preincubated with compound for 10 mins followed by NADPH addition and measured immediately by LC-MS/MS analysis; format: ADME; conditions: liver microsomes, read-out: Stability
[2] = Metabolic stability in human liver microsome assessed as parent compound remaining preincubated with compound for 10 mins followed by NADPH addition and measured at 5 min by LC-MS/MS analysis; format: ADME; conditions: liver microsomes, time 15 min, read-out: Stability
[3] = Metabolic stability in human liver microsome assessed as parent compound remaining preincubated with compound for 10 mins followed by NADPH addition and measured at 15 min by LC-MS/MS analysis; format: ADME; conditions: liver microsomes, time 25 min, read-out: Stability
[4] = Metabolic stability in human liver microsome assessed as parent compound remaining preincubated with compound for 10 mins followed by NADPH addition and measured at 30 min by LC-MS/MS analysis; format: ADME; conditions: liver microsomes, time 40 min, read-out: Stability
[5] = Metabolic stability in human liver microsome assessed as parent compound remaining preincubated with compound for 10 mins followed by NADPH addition and measured at 60 min by LC-MS/MS analysis; format: ADME; conditions: liver microsomes, time 70 min, read-out: Stability
[6] = Metabolic stability in human liver microsome assessed as half life preincubated with compound for 10 mins followed by NADPH addition and measured up to 60 min by LC-MS/MS analysis; format: ADME; conditions: liver microsomes, time < 70 min
[7] = Metabolic stability in human microsome assessed as intrinsic clearance preincubated with compound for 10 mins followed by NADPH addition and measured up to 60 min by LC-MS/MS analysis; format: ADME; conditions: microsomes, time < 70 min, read-out: CLH
[8] = Metabolic stability in human liver microsome assessed as intrinsic clearance preincubated with compound for 10 mins followed by NADPH addition and measured up to 60 min by LC-MS/MS analysis; format: ADME; conditions: liver microsomes, time < 70 min, read-out: CLH
[9] = Initial plasma concentration in ICR mouse at 2 mg/kg, iv measured up to 24 hrs by LC-MS/MS analysis; format: ADME, organism-based
[10] = Cmax in ICR mouse at 2 mg/kg, iv measured up to 24 hrs by LC-MS/MS analysis; format: ADME, organism-based; conditions: in vivo
[11] = Cmax in ICR mouse at 10 mg/kg, po measured up to 24 hrs by LC-MS/MS analysis; format: ADME, organism-based; conditions: in vivo
[12] = Half life in ICR mouse at 2 mg/kg, iv measured up to 24 hrs by LC-MS/MS analysis; format: ADME, organism-based; conditions: in vivo
[13] = Half life in ICR mouse at 10 mg/kg, po measured up to 24 hrs by LC-MS/MS analysis; format: ADME, organism-based; conditions: in vivo
[14] = Tmax in ICR mouse at 2 mg/kg, iv measured up to 24 hrs by LC-MS/MS analysis; format: ADME, organism-based; conditions: in vivo
[15] = Tmax in ICR mouse at 10 mg/kg, po measured up to 24 hrs by LC-MS/MS analysis; format: ADME, organism-based; conditions: in vivo
[16] = AUC (0 to t) in ICR mouse at 2 mg/kg, iv measured up to 24 hrs by LC-MS/MS analysis; format: ADME, organism-based; conditions: in vivo
[17] = AUC (0 to t) in ICR mouse at 10 mg/kg, po measured up to 24 hrs by LC-MS/MS analysis; format: ADME, organism-based; conditions: in vivo
[18] = AUC (0 to infinity) in ICR mouse at 2 mg/kg, iv measured up to 24 hrs by LC-MS/MS analysis; format: ADME, organism-based; conditions: in vivo
[19] = AUC (0 to infinity) in ICR mouse at 10 mg/kg, po measured up to 24 hrs by LC-MS/MS analysis; format: ADME, organism-based; conditions: in vivo
[20] = MRT (0 to t) in ICR mouse at 2 mg/kg, iv measured up to 24 hrs by LC-MS/MS analysis; format: ADME, organism-based; conditions: in vivo
[21] = MRT (0 to t) in ICR mouse at 10 mg/kg, po measured up to 24 hrs by LC-MS/MS analysis; format: ADME, organism-based; conditions: in vivo
[22] = MRT (0 to infinity) in ICR mouse at 2 mg/kg, iv measured up to 24 hrs by LC-MS/MS analysis; format: ADME, organism-based; conditions: in vivo
[23] = MRT (0 to infinity) in ICR mouse at 10 mg/kg, po measured up to 24 hrs by LC-MS/MS analysis; format: ADME, organism-based; conditions: in vivo
[24] = Clearance in ICR mouse at 2 mg/kg, iv measured up to 24 hrs by LC-MS/MS analysis; format: ADME, organism-based; conditions: in vivo
[25] = Volume of distribution at steady state in ICR mouse at 2 mg/kg, iv measured up to 24 hrs by LC-MS/MS analysis; format: ADME, organism-based; conditions: in vivo, read-out: Vdss
[26] = Oral bioavailability in ICR mouse at 10 mg/kg measured up to 24 hrs by LC-MS/MS analysis; format: ADME, organism-based; conditions: in vivo
[27] = molecular target: Serine/threonine-protein kinase Chk2 (Homo sapiens) (UniProt O96017); test: Inhibition of CHK2 (unknown origin) at 500 nM relative to control
HT-29 [28] = test: Antitumor activity against human HT-29 cells xenografted in female BALB/c mouse assessed as tumor growth inhibition at 30 mg/kg, iv administered once daily for 21 days and measured after 3 days by vernier calipers analysis; conditions: HT-29, 576 h, read-out: TGI
HT-29 [29] = test: Antitumor activity against human HT-29 cells xenografted in female BALB/c mouse assessed as tumor growth inhibition at 30 mg/kg, iv administered once daily for 21 days and measured after 3 days in presence of gemcitabine by vernier calipers analysis; conditions: HT-29, 576 h, read-out: TGI
[30] = Toxicity in female BALB/c mouse xenografted with human HT-29 cells assessed as change in body weight at 30 mg/kg, iv administered once daily for 21 days and measured after 3 days; format: organism-based; conditions: in vivo, 576 h, time 24 day
HT-29 [31] = test: cells; conditions: Homo sapiens, HT-29, 72 h
Description: Antiproliferative activity against human HT-29 cells assessed as inhibition of cell proliferation incubated for 72 hrs by CCK-8 assay

A549 = test: cells; conditions: Homo sapiens, A549, 72 h
Description: Antiproliferative activity against human A549 cells assessed as inhibition of cell proliferation incubated for 72 hrs by CCK-8 assay

OVCAR-3 = test: cells; conditions: Homo sapiens, OVCAR-3, 72 h
Description: Antiproliferative activity against human OVCAR-3 cells assessed as inhibition of cell proliferation incubated for 72 hrs by CCK-8 assay

HL-60 = test: cells; conditions: Homo sapiens, HL-60, 72 h
Description: Antiproliferative activity against human HL-60 cells assessed as inhibition of cell proliferation incubated for 72 hrs by CCK-8 assay

HCT-116 = test: cells; conditions: Homo sapiens, HCT-116, 72 h
Description: Antiproliferative activity against human HCT-116 cells assessed as inhibition of cell proliferation incubated for 72 hrs by CCK-8 assay

A2780 = test: cells; conditions: Homo sapiens, A2780, 72 h
Description: Antiproliferative activity against human A2780 cells assessed as inhibition of cell proliferation incubated for 72 hrs by CCK-8 assay

MDA-MB-468 = test: cells; conditions: Homo sapiens, MDA-MB-468, 72 h
Description: Antiproliferative activity against human MDA-MB-468 cells assessed as inhibition of cell proliferation incubated for 72 hrs by CCK-8 assay

HT-29 [32] = test: cells; conditions: Homo sapiens, HT-29, 72 h; remark: listed apart in the source
Description: Synergistic antiproliferative activity against human HT-29 cells assessed as inhibition of cell proliferation incubated for 72 hrs in presence of gemcitabine by CCK-8 assay

HT-29 [33] = test: cells; conditions: Homo sapiens, HT-29, 72 h; remark: listed apart in the source

Serine/threonine-protein kinase Chk2 (Homo sapiens), sequence (O96017 whole entry): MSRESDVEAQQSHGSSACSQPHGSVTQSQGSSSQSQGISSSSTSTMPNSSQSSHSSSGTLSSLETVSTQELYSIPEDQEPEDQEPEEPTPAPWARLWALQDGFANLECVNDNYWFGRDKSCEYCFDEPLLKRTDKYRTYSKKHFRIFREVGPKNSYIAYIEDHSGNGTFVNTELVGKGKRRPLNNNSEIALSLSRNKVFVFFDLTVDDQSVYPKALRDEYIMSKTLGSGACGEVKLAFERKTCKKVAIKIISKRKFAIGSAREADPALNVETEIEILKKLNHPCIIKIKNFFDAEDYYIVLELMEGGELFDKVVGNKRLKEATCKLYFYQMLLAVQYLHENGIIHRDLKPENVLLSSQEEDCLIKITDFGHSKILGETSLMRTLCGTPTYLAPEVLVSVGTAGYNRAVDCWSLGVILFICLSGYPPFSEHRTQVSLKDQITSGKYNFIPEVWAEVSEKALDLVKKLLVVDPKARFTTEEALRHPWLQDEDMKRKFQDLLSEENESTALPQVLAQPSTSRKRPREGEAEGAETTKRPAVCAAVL

In the case of `N#Cc1ncc(Nc2ncc3c(ccc(=O)n3CC(F)F)n2)cc1N[C@@H]1CCNC1`, the IC50 (MV4-11) is reported as 202 nM, the remaining at 0 min [1] is reported as 100% and the remaining at 5 min [2] is reported as 60.1%. It also gave a remaining at 0.25 h [3] of 24.4%, a remaining at 0.5 h [4] of 8.93% and a remaining at 1 h [5] of 1.96%. It also gave a half-life [6] of 10.8 min, a microsomal CLint [7] of 129 µL/min/mg and a CLint scaled [8] of 116 mL/min/kg. It also gave a C0 at 24 h [9] of 860 ng/mL, a Cmax [10] of 526 ng/mL and a Cmax [11] of 81.1 ng/mL. For the same compound, the half-life [12] was 342 min, the half-life [13] was 90.6 min and the Tmax [14] was 4.8 min. For the same compound, the Tmax [15] was 4.8 min, the AUC(0-t) at 24 h [16] was 327 ng·h/mL and the AUC(0-t) at 24 h [17] was 40.7 ng·h/mL. The AUC(0-inf) [18] was 341 ng·h/mL, the AUC(0-inf) [19] was 47.3 ng·h/mL and the MRT last at 24 h [20] was 2.67 h. For the same compound, the MRT last at 24 h [21] was 1 h, the MRT inf [22] was 3.91 h and the MRT inf [23] was 1.65 h. The clearance [24] was 98.4 mL/min/kg, the Vd [25] was 23.3 L/kg and the bioavailability [26] was 2.77%. It also gave an inhibition [27] of 22%, an inhibition in vivo at 30 mg/kg (HT-29 [28]) of 20.6% and an inhibition in vivo at 30 mg/kg (HT-29 [29]) of 42.8%. The Activity [30] was “Non-Toxic”, the IC50 (HT-29 [31]) was 1170 nM and the IC50 (A549) was greater than 10 µM. The IC50 (OVCAR-3) was 606 nM, the IC50 (HL-60) was greater than 10 µM and the IC50 (HCT-116) was greater than 10 µM. It also gave an IC50 (A2780) greater than 10 µM, an IC50 (MDA-MB-468) greater than 10 µM and an IC50 (HT-29 [32]) of 63.5 nM. It also gave an IC50 (HT-29 [33]) of 63.5 nM.
